Source: PMC10552397 (Cell Communication and Signaling : CCS, 2023)

Experiments:
HeLa wt cells [1] = experiment: Immunofluorescence of GRASP55 and LC3; assay type: cell-based; details: 6 h; BafA1 10 nM
Method: (§1) For immunofluorescence microscopy, HeLa cells were seeded on glass coverslips in 24-well plates. After treatment, cells were fixed in 4% paraformaldehyde for 15 min on ice, quenched with 50 mM NH4Cl for 15 min and permeabilized with 50 µg/mL digitonin (Sigma-Aldrich, St. Louis, MO, USA, #D141) for 5 min. Fixed samples were blocked with 3% BSA (Roth, Karlsruhe, Germany, #8076) for 30 min or overnight and incubated with primary antibodies diluted in 3% BSA for 2 h. Samples were then washed three times with DPBS, incubated with the appropriate secondary antibodies diluted in 3% BSA for 30 min and washed three times with DPBS. Afterwards, cells were embedded in ProLong Glass Antifade Mountant (Thermo Fisher Scientific, Waltham, MA, USA, #P36980) containing 1 µg/mL DAPI (Roth, Karlsruhe, Germany, #6335.1). Images were recorded with an Axio Observer 7 fluorescence microscope (Carl Zeiss Microscopy, Oberkochen, Germany) using a 40x/1,4 Oil DIC M27 Plan-Apochromat objective (Carl Zeiss Microscopy, Oberkochen, Germany) and an ApoTome 2 (Carl Zeiss Microscopy, Oberkochen, Germany).

HeLa wt cells [2] = experiment: Immunofluorescence of LC3 and LAMP1; assay type: cell-based; details: 2 h; prodigiosin 100 nM, BafA1 10 nM
Method: as §1

## CO/C1=C\C(C)=C\[C@@H](C)[C@@H](O)[C@@H](C)C/C(C)=C/C=C/[C@H](OC)[C@@H]([C@@H](C)[C@@H](O)[C@H](C)[C@@]2(O)C[C@@H](O)[C@H](C)[C@@H](C(C)C)O2)OC1=O [BafA1, bafilomycin A1, reference compound]
HeLa wt cells [1]
  co-localization of LC3 and GRASP55: no significant increase
  number of LC3 dots: enriched
HeLa wt cells [2]
  LC3-positive structures: only minor
  co-localization of LC3- and LAMP1-positive structures: comparatively low
